Where “and” joins values, the source holds several entries; their conditions need not be identical. Equal values may be shown once.
Tests used:
non-growing UPEC CFT073 = experiment: Dose-dependent killing analysis (CFU spot-plating) of stationary-phase UPEC; format: cell-based, Escherichia coli
Method in brief: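 Non-growing (stationary-phase) UPEC CFT073 treated with compounds in 96-well format at 200 μl, then 10-fold serially diluted in PBS and 10 μl spots plated on LB agar. Plates incubated overnight at 37 °C; colonies counted at lowest resolvable dilution to give CFU. Three biological replicates.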

[1] = test system: non-growing P. aeruginosa DSM1117; experiment: Dose-dependent killing analysis (CFU spot-plating) of stationary-phase P. aeruginosa; format: cell-based, Pseudomonas aeruginosa; conditions: for killing, average Δlog10(CFU/ml) / log10(CFU/ml) of treated nongrowing bacteria (single replicates): P. aeruginosa; for log10(CFU/ml) of treated nongrowing bacteria (single replicates): before treatment 8.887
Method in brief: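 Stationary-phase P. aeruginosa DSM1117 treated for 24 h in 1:4 CA-MHB, pH 7.4, across compound doses. Survivors counted after 10-fold PBS dilution, spot-plating on LB agar and overnight growth at 37 °C; three biological replicates.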

[2] = test system: non-growing S. aureus DSM2569; experiment: Dose-dependent killing analysis (CFU spot-plating) of stationary-phase S. aureus; format: cell-based, Staphylococcus aureus; conditions: for killing, average Δlog10(CFU/ml) / log10(CFU/ml) of treated nongrowing bacteria (single replicates): S. aureus; for log10(CFU/ml) of treated nongrowing bacteria (single replicates): before treatment 9,097
Method in brief: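 Stationary-phase S. aureus DSM2569 was grown and treated for 24 h in 1:4 CA-MHB at pH 7.4. Treated samples were serially diluted 10-fold in PBS and spot-plated on LB agar, which was incubated overnight at 37 °C. Survivors were counted as CFU over three biological replicates.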

[3] = test system: non-growing S. aureus DSM2569; experiment: Dilution-regrowth assay (OD600, start-growth-time) on stationary-phase S. aureus; format: cell-based, Staphylococcus aureus; conditions: S. aureus; regrowth delay of non-growing bacteria, 1:4 CA-MHB pH 7.4, 24 h treatment, OD600 8 h after dilution; read-out: EC50
Method in brief: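 Stationary-phase S. aureus cultures were grown and exposed to compound for 24 h in 1:4 CA-MHB (pH 7.4) at 37 °C in 96-well plates with 200 μl volume. After dilution into drug-free medium, regrowth was tracked in a plate reader at 37 °C with continuous shaking, reading OD600 every 20 min; EC50 came from five-parameter logistic fitting.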

N[C@@H]1CN(c2c(F)cc3c(=O)c(C(=O)O)cn([C@@H]4C[C@@H]4F)c3c2Cl)CC12CC2 [Sitafloxacin]
bactericidal activity against non-growing UPEC (CFU counting) (non-growing UPEC CFT073; 24 h treatment of stationary phase culture): most potent and bactericidal | killing, average Δlog10(CFU/ml) (non-growing UPEC CFT073; E. coli in 1:4 CA-MHB (pH 7.4), drug concentration 0.25): 1.161 log10(CFU/ml) | log10(CFU/ml) of treated nongrowing bacteria (single replicates) (non-growing UPEC CFT073; E. coli in 1:4 CA-MHB (pH 7.4), drug concentration 0.25, before treatment 8.977): 8.415 log10(CFU/ml) and 7.602 log10(CFU/ml) and 7.431 log10(CFU/ml) | killing, average Δlog10(CFU/ml) (non-growing UPEC CFT073; E. coli in 1:4 CA-MHB (pH 7.4), drug concentration 0.5): 2.277 log10(CFU/ml) | log10(CFU/ml) of treated nongrowing bacteria (single replicates) (non-growing UPEC CFT073; E. coli in 1:4 CA-MHB (pH 7.4), drug concentration 0.5, before treatment 8.977): 7.255 log10(CFU/ml) and 6.699 log10(CFU/ml) and 6.146 log10(CFU/ml) | killing, average Δlog10(CFU/ml) (non-growing UPEC CFT073; E. coli in 1:4 CA-MHB (pH 7.4), drug concentration 1): 3.175 log10(CFU/ml) | log10(CFU/ml) of treated nongrowing bacteria (single replicates) (non-growing UPEC CFT073; E. coli in 1:4 CA-MHB (pH 7.4), drug concentration 1, before treatment 8.977): 6.204 log10(CFU/ml) and 5.903 log10(CFU/ml) and 5.301 log10(CFU/ml) | killing, average Δlog10(CFU/ml) (non-growing UPEC CFT073; E. coli in 1:4 CA-MHB (pH 7.4), drug concentration 2.5): 4.145 log10(CFU/ml) | log10(CFU/ml) of treated nongrowing bacteria (single replicates) (non-growing UPEC CFT073; E. coli in 1:4 CA-MHB (pH 7.4), drug concentration 2.5, before treatment 8.977): 5.176 log10(CFU/ml) and 4.477 log10(CFU/ml) and 4.845 log10(CFU/ml) | killing, average Δlog10(CFU/ml) (non-growing UPEC CFT073; E. coli in 1:4 CA-MHB (pH 7.4), drug concentration 5): 4.067 log10(CFU/ml) | log10(CFU/ml) of treated nongrowing bacteria (single replicates) (non-growing UPEC CFT073; E. coli in 1:4 CA-MHB (pH 7.4), drug concentration 5, before treatment 8.977): 5.255 log10(CFU/ml) and 4.699 log10(CFU/ml) and 4.778 log10(CFU/ml) | killing, average Δlog10(CFU/ml) (non-growing UPEC CFT073; E. coli in 1:4 CA-MHB (pH 7.4), drug concentration 10): 4.500 log10(CFU/ml) | log10(CFU/ml) of treated nongrowing bacteria (single replicates) (non-growing UPEC CFT073; E. coli in 1:4 CA-MHB (pH 7.4), drug concentration 10, before treatment 8.977): 4.954 log10(CFU/ml) and =<4 log10(CFU/ml) and 4.477 log10(CFU/ml) | killing, average Δlog10(CFU/ml) (non-growing UPEC CFT073; E. coli in LPM (pH 5.5), drug concentration 0.25): -0.135 log10(CFU/ml) | log10(CFU/ml) of treated nongrowing bacteria (single replicates) (non-growing UPEC CFT073; E. coli in LPM (pH 5.5), drug concentration 0.25, before treatment 7.350): 7.000 log10(CFU/ml) and 7.176 log10(CFU/ml) and 8.279 log10(CFU/ml) | killing, average Δlog10(CFU/ml) (non-growing UPEC CFT073; E. coli in LPM (pH 5.5), drug concentration 0.5): 0.023 log10(CFU/ml) | log10(CFU/ml) of treated nongrowing bacteria (single replicates) (non-growing UPEC CFT073; E. coli in LPM (pH 5.5), drug concentration 0.5, before treatment 7.350): 6.778 log10(CFU/ml) and 7.000 log10(CFU/ml) and 8.204 log10(CFU/ml) | killing, average Δlog10(CFU/ml) (non-growing UPEC CFT073; E. coli in LPM (pH 5.5), drug concentration 1): -0.037 log10(CFU/ml) | log10(CFU/ml) of treated nongrowing bacteria (single replicates) (non-growing UPEC CFT073; E. coli in LPM (pH 5.5), drug concentration 1, before treatment 7.350): 7.146 log10(CFU/ml) and 7.114 log10(CFU/ml) and 7.903 log10(CFU/ml) | killing, average Δlog10(CFU/ml) (non-growing UPEC CFT073; E. coli in LPM (pH 5.5), drug concentration 2.5): 0.324 log10(CFU/ml) | log10(CFU/ml) of treated nongrowing bacteria (single replicates) (non-growing UPEC CFT073; E. coli in LPM (pH 5.5), drug concentration 2.5, before treatment 7.350): 7.000 log10(CFU/ml) (2×) and 7.079 log10(CFU/ml) | killing, average Δlog10(CFU/ml) (non-growing UPEC CFT073; E. coli in LPM (pH 5.5), drug concentration 5): 1.016 log10(CFU/ml) | log10(CFU/ml) of treated nongrowing bacteria (single replicates) (non-growing UPEC CFT073; E. coli in LPM (pH 5.5), drug concentration 5, before treatment 7.350): 6.301 log10(CFU/ml) and 6.954 log10(CFU/ml) and 5.748 log10(CFU/ml) | killing, average Δlog10(CFU/ml) (non-growing UPEC CFT073; E. coli in LPM (pH 5.5), drug concentration 10): 1.383 log10(CFU/ml) | log10(CFU/ml) of treated nongrowing bacteria (single replicates) (non-growing UPEC CFT073; E. coli in LPM (pH 5.5), drug concentration 10, before treatment 7.350): 6.279 log10(CFU/ml) and 6.544 log10(CFU/ml) and 5.079 log10(CFU/ml) | killing, average Δlog10(CFU/ml) ([1]; drug concentration 0.1): 1.534 log10(CFU/ml) | log10(CFU/ml) of treated nongrowing bacteria (single replicates) ([1]; drug concentration 0.1): 7.699 log10(CFU/ml) and 7.362 log10(CFU/ml) and 7.000 log10(CFU/ml) | killing, average Δlog10(CFU/ml) ([1]; drug concentration 0.5): 3.935 log10(CFU/ml) | log10(CFU/ml) of treated nongrowing bacteria (single replicates) ([1]; drug concentration 0.5): 5.954 log10(CFU/ml) and 4.903 log10(CFU/ml) and =<4 log10(CFU/ml) | killing, average Δlog10(CFU/ml) ([1]; drug concentration 2.5): 4.787 log10(CFU/ml) | log10(CFU/ml) of treated nongrowing bacteria (single replicates) ([1]; drug concentration 2.5): =<4 log10(CFU/ml) (2×) and 4.301 log10(CFU/ml) | killing, average Δlog10(CFU/ml) ([1]; drug concentration 10): 4.353 log10(CFU/ml) | log10(CFU/ml) of treated nongrowing bacteria (single replicates) ([1]; drug concentration 10): 5.000 log10(CFU/ml) and 4.602 log10(CFU/ml) and =<4 log10(CFU/ml) | reduction of bacterial counts, stationary phase P. aeruginosa ([1]; at 0.5 µM, 24 h treatment): more than four | reduction of bacterial counts, non-growing P. aeruginosa ([1]; at 2.5 µM, 1:4 CA-MHB pH 7.4, 24 h treatment): more than four | killing of non-growing S. aureus (reduction of bacterial counts) ([2]; 10 to 0.1 μM, 24 h treatment): the most activity | killing, average Δlog10(CFU/ml) ([2]; drug concentration 0.1): 0.348 log10(CFU/ml) | log10(CFU/ml) of treated nongrowing bacteria (single replicates) ([2]; drug concentration 0.1): 8.602 log10(CFU/ml) and 8.881 log10(CFU/ml) and 8.763 log10(CFU/ml) | killing, average Δlog10(CFU/ml) ([2]; drug concentration 0.5): 1.504 log10(CFU/ml) | log10(CFU/ml) of treated nongrowing bacteria (single replicates) ([2]; drug concentration 0.5): 7.223 log10(CFU/ml) and 7.833 log10(CFU/ml) and 7.724 log10(CFU/ml) | killing, average Δlog10(CFU/ml) ([2]; drug concentration 2.5): 2.447 log10(CFU/ml) | log10(CFU/ml) of treated nongrowing bacteria (single replicates) ([2]; drug concentration 2.5): 6.820 log10(CFU/ml) and 6.716 log10(CFU/ml) and 6.413 log10(CFU/ml) | killing, average Δlog10(CFU/ml) ([2]; drug concentration 10): 2.500 log10(CFU/ml) | log10(CFU/ml) of treated nongrowing bacteria (single replicates) ([2]; drug concentration 10): 6.908 log10(CFU/ml) and 6.613 log10(CFU/ml) and 6.270 log10(CFU/ml) | EC50 [3]: 106 nM

Source: PMC11992225, “Antibacterial compounds against non-growing and intracellular bacteria” (npj Antimicrobials and Resistance, 2025)
